# US8629168B2, “Benzoxazoles and oxazolopyridines being useful as janus kinases inhibitors” (priority 2006, dated 2014)
# Molecular target: T1, GST-JAK2(808-1132) (Homo sapiens, UniProt O60674)
# T1 construct: GST-JAK2(808-1132) is purchased from Invitrogen; purchased Invitrogen (Carlsbad, USA) #4288
# Test: EPK JAK/TYK-kinase family profiling assay (Caliper mobility shift), JAK2
# Type: biochemical
# Details: Caliper mobility shift assay of Example 187, 20 μM ATP, read-out: IC50 with Test in present Example
# Text: All four kinases of the JAK/TYK-kinase family are used as purified recombinant GST-fusion proteins, containing the active kinase domains. GST-JAK1(866-1154), GST-JAK3(811-1124), and GST-TYK2(888-1187) are expressed and purified by affinity chromatography. GST-JAK2(808-1132) is purchased from Invitrogen (Carlsbad, USA, #4288).
# The kinase assays are based on the Caliper mobility shift assay using the LabChip 3000 systems. This technology is similar to capillary electrophoresis and uses charge driven separation of substrate and product in a microfluidic chip.
# All kinase reactions are performed in 384 well microtiter plates in a total reaction volume of 18 μl. The assay plates are prepared with 0.1 μl per well of test compound in the appropriate test concentration, as described under the section “preparation of compound dilutions”. The reactions are started by combining 9 μl of substrate mix (consisting of peptide and ATP) with 9 μl of kinase dilution. The reactions are incubated for 60 minutes at 30° C. and stopped by adding 70 μl of stop buffer (100 mM Hepes, 5% DMSO, 0.1% Coating reagent, 10 mM EDTA, 0.015% Brij 35).
# Fluorescently labeled synthetic peptides are used as substrates in all reactions. […] Specific assay conditions are described in Table 1:
# The terminated reactions are transferred to a Caliper LabChip 3000 reader (Caliper Life Sciences, Mountain View, Calif., USA) and the turnover of each reaction is measured by determining the substrate/product ratio.
# Test compounds are dissolved in DMSO (10 mM) and transferred into 1.4 mL flat bottom or V-shaped Matrix tubes carrying a unique 2D matrix chip by individual compound hubs. The numbers of these chips are distinctively linked to the individual compound identification numbers. The stock solutions are stored at −20° C. if not used immediately. For the test procedure the vials are defrosted and identified by a scanner whereby a working sheet is generated that guides the subsequent working steps.
# Compound dilutions are made in 96 well plates. This format enabled the assay of maximally 40 individual test compounds at 8 concentrations (single points) including 4 reference compounds. The dilution protocol includes the production of pre-dilution plates, master plates and assay plates:
# Pre-dilution plates: 96 polypropylene well plates are used as pre-dilution plates. A total of 4 pre-dilution plates are prepared including 10 test compounds each on the plate positions A1-A10, one standard compound at A11 and one DMSO control at A12. All dilution steps are done on a Hamilton STAR robot (Hamilton, Co., Reno, Nev., USA).
# Master plates: 100 μL of individual compound dilutions including standard compound and controls of the 4 “pre-dilution plates” are transferred into a 384 “master plate” including the following concentrations 1,820, […], 182, 54.6, 18.2, 5.46, 1.82 and 0.546 μM, respectively in 90% of DMSO.
# Assay plates: Identical assay plates are then prepared by pipetting 100 nL each of compound dilutions of the master plates into 384-well “assay plates”. In the following the compounds are mixed with 9 μL of assays components plus 9 μL enzyme corresponding to a 1:181 dilution steps enabling the final concentration of 10, 3.0, 1.0, 0.3, 0.1, 0.03, 0.01 and 0.003 μM, respectively. The preparation of the master plates are handled by the Matrix PlateMate Plus robot (Thermo Fisher Scientific, Handforth, Cheshire, United Kingdom) and replication of assay plates by the HummingBird robot (Genomic Solutions, Inc., Ann Arbor, Mich., USA).
# T1 sequence (O60674 808-1132): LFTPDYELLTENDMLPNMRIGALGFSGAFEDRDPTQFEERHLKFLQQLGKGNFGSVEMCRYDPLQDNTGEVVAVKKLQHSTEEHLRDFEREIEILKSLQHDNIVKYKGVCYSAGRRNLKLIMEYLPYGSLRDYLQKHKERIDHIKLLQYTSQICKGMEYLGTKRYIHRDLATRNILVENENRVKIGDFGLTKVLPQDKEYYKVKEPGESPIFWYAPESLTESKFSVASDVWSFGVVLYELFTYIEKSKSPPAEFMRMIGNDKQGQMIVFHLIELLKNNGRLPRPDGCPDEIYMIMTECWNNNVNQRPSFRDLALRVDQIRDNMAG
row,SMILES,IC50 [nM]
1,"Cc1cc(Nc2nc3cccc(-c4cc(F)c(CN5CCS(=O)(=O)CC5)c(F)c4)c3o2)ccc1C(=O)N(C)CCN(C)C [Example 159, N-(2-Dimethylamino-ethyl)-4-{7-[4-(1,1-dioxo-1lambda*6*-thiomorpholin-4-ylmethyl)-3,5-difluoro-phenyl]-benzooxazol-2-ylamino}-2,N-dimethyl-benzamide]",6.2
2,"Cc1cc(Nc2nc3cccc(-c4cc(F)c(CN5CCOCC5)c(F)c4)c3o2)ccc1C(=O)N(C)C [Example 68, 4-[7-(3,5-Difluoro-4-morpholin-4-ylmethyl-phenyl)-benzooxazol-2-ylamino]-2,N,N-trimethyl-benzamide]",19
3,"COCCN1CCN(c2ccc(Nc3nc4cccc(-c5cc(F)c(CN6CCS(=O)(=O)CC6)c(F)c5)c4o3)cc2C)CC1 [Example 108, {7-[4-(1,1-Dioxo-1lambda*6*-thiomorpholin-4-ylmethyl)-3,5-difluoro-phenyl]-benzooxazol-2-yl}-{4-[4-(2-methoxy-ethyl)-piperazin-1-yl]-3-methyl-phenyl}-amine]",10.3
4,"CCN(CC)C(=O)c1ccc(Nc2nc3cccc(-c4ccc(CC(=O)N5CCS(=O)(=O)CC5)cc4)c3o2)cc1OC [Example 123, 4-(7-{4-[2-(1,1-Dioxo-1lambda*6*-thiomorpholin-4-yl)-2-oxo-ethyl]-phenyl}-benzooxazol-2-ylamino)-N,N-diethyl-2-methoxy-benzamide]",5.4
5,"CN1CCN(c2cccc(Nc3nc4cccc(-c5cc(F)c(CN6CCS(=O)(=O)CC6)c(F)c5)c4o3)c2)CC1 [Example 128, {7-[4-(1,1-Dioxo-1lambda*6*-thiomorpholin-4-ylmethyl)-3,5-difluoro-phenyl]-benzooxazol-2-yl}-[3-(4-methyl-piperazin-1-yl)-phenyl]-amine]",19
6,"Cc1cc(Nc2nc3cccc(-c4ccc(C(C)(C)C(=O)N5CCOCC5)cc4)c3o2)ccc1CN1CCOCC1 [Example 167, 2-Methyl-2-{4-[2-(3-methyl-4-morpholin-4-ylmethyl-phenylamino)-benzooxazol-7-yl]-phenyl}-1-morpholin-4-yl-propan-1-one]",14
7,"CCN(CC)C(=O)c1ccc(Nc2nc3cccc(-c4cc(F)c(CN5CCNCC5)c(F)c4)c3o2)cc1C [Example 118, 4-[7-(3,5-Difluoro-4-piperazin-1-ylmethyl-phenyl)-benzooxazol-2-ylamino]-N,N-diethyl-2-methyl-benzamide]",43
8,"Cc1cc(Nc2nc3cccc(-c4cc(F)c(CN5CCOCC5)c(F)c4)c3o2)ccc1N1CCOCC1 [Example 163, [7-(3,5-Difluoro-4-morpholin-4-ylmethyl-phenyl)-benzooxazol-2-yl]-(3-methyl-4-morpholin-4-yl-phenyl)-amine]",11.6
9,"Cc1cc(Nc2nc3cccc(-c4ccc(CC(=O)N5CCOCC5)cc4)c3o2)ccc1C(=O)N1CCN(C)CC1 [Example 72, 2-(4-{2-[3-Methyl-4-(4-methyl-piperazine-1-carbonyl)-phenylamino]-benzooxazol-7-yl}-phenyl)-1-morpholin-4-yl-ethanone]",17
10,"CCN(CC)C(=O)c1ccc(Nc2nc3cccc(-c4cc(F)c(CN5CCOCC5)c(F)c4)c3o2)cc1C [Example 103, 4-[7-(3,5-Difluoro-4-morpholin-4-ylmethyl-phenyl)-benzooxazol-2-ylamino]-N,N-diethyl-2-methyl-benzamide]",14
11,"COCCNC(=O)c1ccc(Nc2nc3cccc(-c4ccc(C(=O)N5CCOCC5)cc4)c3o2)cc1 [Example 145, N-(2-Methoxy-ethyl)-4-{7-[4-(morpholine-4-carbonyl)-phenyl]-benzooxazol-2-ylamino}-benzamide]",55
12,"COc1cc(Nc2nc3cccc(-c4ccc(Cn5ccnc5)cc4)c3o2)cc(OC)c1OC [Example 136, [7-(4-Imidazol-1-ylmethyl-phenyl)-benzooxazol-2-yl]-(3,4,5-trimethoxy-phenyl)-amine]",18
13,"CN1CCN(c2ccc(Nc3nc4cccc(-c5ccc(CC(=O)N6CCOCC6)cc5)c4o3)cc2)CC1 [Example 74, 2-(4-{2-[4-(4-Methyl-piperazin-1-yl)-phenylamino]-benzooxazol-7-yl}-phenyl)-1-morpholin-4-yl-ethanone]",5
14,"CCN1CCN(c2ccc(Nc3nc4cccc(-c5ccc(C(=O)N6CCOCC6)c(F)c5)c4o3)cc2C)CC1 [Example 94, (4-{2-[4-(4-Ethyl-piperazin-1-yl)-3-methyl-phenylamino]-benzooxazol-7-yl}-2-fluoro-phenyl)-morpholin-4-yl-methanone]",6.9

# The remaining compounds from weak to strong by IC50, led by results:
row,IC50 [nM],SMILES
1,270,"CS(=O)(=O)c1ccc(-c2cccc3nc(Nc4ccc(N5CCN(C6CC6)CC5)cc4)oc23)cc1 [Example 113, [4-(4-Cyclopropyl-piperazin-1-yl)-phenyl]-[7-(4-methanesulfonyl-phenyl)-benzooxazol-2-yl]-amine]"
2,160,COc1cc(Nc2nc3cccc(-c4ccc(CN5CCN(C)CC5)cc4)c3o2)cc(OC)c1OC [Example 137]
3,70.5,"O=C1CCCN1c1ccc(Nc2nc3cccc(-c4cc(F)c(CN5CCS(=O)(=O)CC5)c(F)c4)c3o2)cc1 [Example 125, 1-(4-{7-[4-(1,1-Dioxo-1lambda*6*-thiomorpholin-4-ylmethyl)-3,5-difluoro-phenyl]-benzooxazol-2-ylamino}-phenyl)-pyrrolidin-2-one]"
4,21,"Cc1cc(Nc2nc3cccc(-c4cc(F)c(CN5CCOCC5)c(F)c4)c3o2)ccc1C(=O)N(C)CCN(C)C [Example 158, 4-[7-(3,5-Difluoro-4-morpholin-4-ylmethyl-phenyl)-benzooxazol-2-ylamino]-N-(2-dimethylamino-ethyl)-2,N-dimethyl-benzamide]"
5,19.5,"CN(C)C(=O)c1ccc(Nc2nc3cccc(-c4ccc(S(N)(=O)=O)cc4)c3o2)cc1 [Example 146, N,N-Dimethyl-4-[7-(4-sulfamoyl-phenyl)-benzooxazol-2-ylamino]-benzamide]"
6,19.2,"Cc1cc(Nc2nc3cccc(-c4cc(F)c(CN5CCOCC5)c(F)c4)c3o2)ccc1C(=O)N1CCCC1 [Example 99, {4-[7-(3,5-Difluoro-4-morpholin-4-ylmethyl-phenyl)-benzooxazol-2-ylamino]-2-methyl-phenyl}-pyrrolidin-1-yl-methanone]"
7,14,"COc1cc(Nc2nc3cccc(-c4ccc(CN5CCOCC5)cc4)c3o2)cc(OC)c1OC [Example 138, [7-(4-Morpholin-4-ylmethyl-phenyl)-benzooxazol-2-yl]-(3,4,5-trimethoxy-phenyl)-amine]"
8,14,"Cc1cc(Nc2nc3cccc(-c4ccc(CN5CCOCC5)c(F)c4)c3o2)ccc1C(=O)N1CCCC1 [Example 67, {4-[7-(3-Fluoro-4-morpholin-4-ylmethyl-phenyl)-benzooxazol-2-ylamino]-2-methyl-phenyl}-pyrrolidin-1-yl-methanone]"
9,7.25,"Cc1cc(Nc2nc3cccc(-c4cc(F)c(CN5CCS(=O)(=O)CC5)c(F)c4)c3o2)ccc1N1CCOCC1 [Example 164, {7-[4-(1,1-Dioxo-1lambda*6*-thiomorpholin-4-ylmethyl)-3,5-difluoro-phenyl]-benzooxazol-2-yl}-(3-methyl-4-morpholin-4-yl-phenyl)-amine]"
10,6.15,"Cc1cc(-c2cccc3nc(Nc4ccc(N5CCN(C(C)C)CC5)c(C)c4)oc23)ccc1C(=O)N1CCOCC1 [Example 106, (4-{2-[4-(4-Isopropyl-piperazin-1-yl)-3-methyl-phenylamino]-benzooxazol-7-yl}-2-methyl-phenyl)-morpholin-4-yl-methanone]"
11,3.6,"Cc1cc(Nc2nc3cccc(-c4cc(F)c(CN5CCS(=O)(=O)CC5)c(F)c4)c3o2)ccc1N1CCN(C(C)C)CC1 [Example 101, {7-[4-(1,1-Dioxo-1lambda*6*-thiomorpholin-4-ylmethyl)-3,5-difluoro-phenyl]-benzooxazol-2-yl}-[4-(4-isopropyl-piperazin-1-yl)-3-methyl-phenyl]-amine]"
